For data set [1], the target named is T1, Programmed cell death protein 1/Programmed cell death 1 ligand 1 (Homo sapiens, UniProt Q15116+Q9NZQ7). Description: Inhibition of PD-1/PD-L1 interaction (unknown origin) incubated for 60 min by HTRF assay. It counts as protein-complex assay. In general terms: TR-FRET usually uses a lanthanide donor and a delayed reading to cut background.
A further data set has as its system Jurkat. Description: Cytotoxicity against human Jurkat cells assessed as reduction in cell viability at 3.3 uM incubated for 48 hrs by CCK-8 assay. The class given is toxicity, cell-based. On the technique in general: Formazan colour is commonly taken as a measure of viable cells.
Data set [2] addresses T1, Programmed cell death protein 1/Programmed cell death 1 ligand 1. The experiment in a line: Inhibition of PD-1/PD-L1 interaction in co-culture of Jurkat-NFAT-PD-1 cells expressing PD-1 and reporter gene and Hep3B-OS8-hPD-L1 cells expressing OS-8 and human PD-L1 assessed as increase in luminescence intensity incubated for 6 hrs by luminometry. The note with it: dose 0.4-1.11 µM. A general note: In a reporter assay the amount or activity of a reporter protein is the signal.

Some results are limits rather than exact numbers.

T1 sequence (Q15116 whole entry): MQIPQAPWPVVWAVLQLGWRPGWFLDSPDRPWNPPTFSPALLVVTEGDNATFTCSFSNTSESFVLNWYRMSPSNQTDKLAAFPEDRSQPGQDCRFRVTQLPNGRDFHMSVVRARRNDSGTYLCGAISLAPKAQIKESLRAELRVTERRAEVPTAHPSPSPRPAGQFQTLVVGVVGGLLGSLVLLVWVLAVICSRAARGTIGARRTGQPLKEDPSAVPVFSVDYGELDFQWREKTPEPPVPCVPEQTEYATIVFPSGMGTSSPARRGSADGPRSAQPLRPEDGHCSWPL
T1 sequence (Q9NZQ7 whole entry): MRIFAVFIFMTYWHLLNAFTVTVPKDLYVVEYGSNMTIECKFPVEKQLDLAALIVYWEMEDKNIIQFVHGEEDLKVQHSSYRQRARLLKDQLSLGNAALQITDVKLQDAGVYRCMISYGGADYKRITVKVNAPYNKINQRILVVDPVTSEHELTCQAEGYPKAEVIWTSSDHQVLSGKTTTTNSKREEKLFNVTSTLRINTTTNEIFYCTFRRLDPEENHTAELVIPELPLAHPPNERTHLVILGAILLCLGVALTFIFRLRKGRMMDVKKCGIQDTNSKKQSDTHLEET

For orientation: IC50 means the point on the concentration scale where inhibition reaches its midpoint. With `Cc1c(COc2cc(OCc3cccc(C#N)c3)c(CN3CCC(O)CC3)cc2Cl)cccc1-c1cccc2c(Oc3cc(OCc4cccc(C#N)c4)c(CN4CCC(O)CC4)cc3Cl)ncnc12`, half-maximal inhibition in data set [1] (IC50) required 75.8 nM.

In the case of `CCNCc1cc(Cl)c(OCc2cccc(-c3cccc4c(Oc5cc(OCc6cccc(C#N)c6)c(CNCC)cc5Cl)ncnc34)c2C)cc1OCc1cccc(C#N)c1`, the IC50 in data set [1] was determined as 48.5 nM.

Molecule `Cc1c(COc2cc(OCc3cccc(C#N)c3)c(C=O)cc2Cl)cccc1-c1cccc2c(Oc3cc(OCc4cccc(C#N)c4)c(C=O)cc3Cl)ncnc12` returned an IC50 in data set [1] of over 1000 nM.

For the molecule `Cc1c(COc2cc(OCc3cccc(C#N)c3)c(CN3CC[C@H](O)C3)cc2Cl)cccc1-c1cccc2c(Oc3cc(OCc4cccc(C#N)c4)c(CN4CC[C@H](O)C4)cc3Cl)ncnc12`, the concentration for half-maximal inhibition (IC50) in data set [1] amounted to 55.5 nM.

`COCCNCc1cc(Cl)c(OCc2cccc(-c3cccc4c(Oc5cc(OCc6cccc(C#N)c6)c(CNCCOC)cc5Cl)ncnc34)c2C)cc1OCc1cccc(C#N)c1` had an IC50 in data set [1] of 101 nM.

Consider `Cc1c(COc2cc(OCc3cccc(C#N)c3)c(CNCCO)cc2Cl)cccc1-c1cccc2c(Oc3cc(OCc4cccc(C#N)c4)c(CNCCO)cc3Cl)ncnc12`, for which half-maximal inhibition in data set [1] (IC50) required 37.7 nM.

In data set [1], `Cc1c(Nc2nccc3cc(CN4CC[C@H](O)C4)cnc23)cccc1-c1cccc(-c2nc3cc(CN4CC[C@H](C(=O)O)C4)cc(C#N)c3o2)c1C` displayed an IC50 of 12.1 nM.

Consider `Cc1c(COc2cc(OCc3cccc(C#N)c3)c(CNC(CO)CO)cc2Cl)cccc1-c1cccc2c(Oc3cc(OCc4cccc(C#N)c4)c(CNC(CO)CO)cc3Cl)ncnc12`, for which the IC50 in data set [1] amounted to 47.2 nM.

As for `Cc1c(COc2cc(OCc3cccc(C#N)c3)c(CN(C)CCO)cc2Cl)cccc1-c1cccc2c(Oc3cc(OCc4cccc(C#N)c4)c(CN(C)CCO)cc3Cl)ncnc12`, the IC50 in data set [1] stood at 44.8 nM.

As for `Cc1c(COc2cc(OCc3cccc(C#N)c3)c(CNC(CO)(CO)CO)cc2Cl)cccc1-c1cccc2c(Oc3cc(OCc4cccc(C#N)c4)c(CNC(CO)(CO)CO)cc3Cl)ncnc12`, in data set [1], the IC50 stood at 25.3 nM.

In data set [1], `Cc1c(COc2cc(OCc3cccc(C#N)c3)c(CNC3CCCCC3)cc2Cl)cccc1-c1cccc2c(Oc3cc(OCc4cccc(C#N)c4)c(CNC4CCCCC4)cc3Cl)ncnc12` gave an IC50 of 167 nM. This IC50 lies about 6.6-fold higher than the previous one.

Molecule `CC(=O)NCCNCc1cc(Cl)c(OCc2cccc(-c3cccc4c(Oc5cc(OCc6cccc(C#N)c6)c(CNCCNC(C)=O)cc5Cl)ncnc34)c2C)cc1OCc1cccc(C#N)c1` had an IC50 in data set [1] of 61.4 nM.

With `Cc1c(COc2cc(OCc3cccc(C#N)c3)c(CN3CC[C@@H](O)C3)cc2Cl)cccc1-c1cccc2c(Oc3cc(OCc4cccc(C#N)c4)c(CN4CC[C@@H](O)C4)cc3Cl)ncnc12`, the midpoint of inhibition in data set [1], the IC50, lay at 46.2 nM.

In the case of `Cc1c(COc2cc(OCc3cccc(C#N)c3)c(CNC[C@H](O)CO)cc2Cl)cccc1-c1cccc2c(Oc3cc(OCc4cccc(C#N)c4)c(CNC[C@H](O)CO)cc3Cl)ncnc12`, in data set [1], half-maximal inhibition (IC50) was put at 33.9 nM.

Consider `Cc1c(COc2cc(OCc3cccc(C#N)c3)c(CNC(C)C)cc2Cl)cccc1-c1cccc2c(Oc3cc(OCc4cccc(C#N)c4)c(CNC(C)C)cc3Cl)ncnc12`, for which it took 51.5 nM to reach half-maximal inhibition in data set [1] (IC50).

Consider `CC(CO)(CO)NCc1cc(Cl)c(Oc2ncnc3c(-c4ccc5c(c4)OCCO5)cccc23)cc1OCc1cccc(C#N)c1`, for which 40.8 nM corresponded to half-maximal inhibition in data set [1] (IC50). This IC50 and that of the molecule before are within 1.5-fold of each other.

`Cc1c(COc2cc(OCc3cccc(C#N)c3)c(CNC[C@@H](O)CO)cc2Cl)cccc1-c1cccc2c(Oc3cc(OCc4cccc(C#N)c4)c(CNC[C@@H](O)CO)cc3Cl)ncnc12` had an IC50 in data set [1] of 23.8 nM. The Activity entry with Jurkat is recorded as “Non-Toxic”. In data set [2], the inhibition result was “Dose-Dependent Effect”.

Turning to `Cc1c(COc2cc(OCc3cccc(C#N)c3)c(CO)cc2Cl)cccc1-c1cccc2c(Oc3cc(OCc4cccc(C#N)c4)c(CO)cc3Cl)ncnc12`, the IC50 in data set [1] is over 1000 nM.

Molecule `Cc1c(COc2cc(OCc3cccc(C#N)c3)c(CNC3CC3)cc2Cl)cccc1-c1cccc2c(Oc3cc(OCc4cccc(C#N)c4)c(CNC4CC4)cc3Cl)ncnc12` registered an IC50 in data set [1] of 390 nM.

In the case of `Cc1c(COc2cc(OCc3cccc(C#N)c3)c(CNC3CCC3)cc2Cl)cccc1-c1cccc2c(Oc3cc(OCc4cccc(C#N)c4)c(CNC4CCC4)cc3Cl)ncnc12`, it took 105 nM to reach half-maximal inhibition in data set [1] (IC50). Against the preceding molecule, the IC50 is about 3.7-fold lower.

Turning to `Cc1c(COc2cc(OCc3cccc(C#N)c3)c(CNC3CCOCC3)cc2Cl)cccc1-c1cccc2c(Oc3cc(OCc4cccc(C#N)c4)c(CNC4CCOCC4)cc3Cl)ncnc12`, 59.7 nM corresponded to half-maximal inhibition in data set [1] (IC50).

For `Cc1c(COc2cc(OCc3cccc(C#N)c3)c(CNC(C)(CO)CO)cc2Cl)cccc1-c1cccc2c(Oc3cc(OCc4cccc(C#N)c4)c(CNC(C)(CO)CO)cc3Cl)ncnc12`, it took 30.2 nM to reach half-maximal inhibition in data set [1] (IC50).

`Cc1c(COc2cc(OCc3cccc(C#N)c3)c(CNC3CCCC3)cc2Cl)cccc1-c1cccc2c(Oc3cc(OCc4cccc(C#N)c4)c(CNC4CCCC4)cc3Cl)ncnc12` registered an IC50 in data set [1] of 112 nM. This IC50 lies about 3.7-fold higher than the previous one.

(Values after ChEMBL document CHEMBL5335863, “Design, Synthesis, and Evaluation of 8-(o-Tolyl)quinazoline Derivatives as Small-Molecule PD-1/PD-L1 Antagonists” (ACS Med Chem Lett, 2024).)
